Test results as given in PubChem BioAssay (NCI).
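Compound exposure: 48 hours, 5 concentrations, 96-well plates. GI50 is the concentration that inhibits growth by half. TGI: concentration producing complete growth inhibition.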

What was measured:
Test in all cases: NCI-60 cell line screen, 48 h
OVCAR-4 ovarian = system: OVCAR-4 ovarian
SF-268 CNS = system: SF-268 CNS
MCF7 breast = system: MCF7 breast
K-562 leukemia = system: K-562 leukemia
SW-620 colon = system: SW-620 colon
BT-549 breast = system: BT-549 breast
TK-10 renal = system: TK-10 renal
U251 CNS = system: U251 CNS
HOP-92 NSCLC = system: HOP-92 NSCLC
COLO 205 colon = system: COLO 205 colon
SN12C renal = system: SN12C renal
LOX IMVI melanoma = system: LOX IMVI melanoma
UACC-257 melanoma = system: UACC-257 melanoma
ACHN renal = system: ACHN renal
HOP-62 NSCLC = system: HOP-62 NSCLC
EKVX NSCLC = system: EKVX NSCLC
A549 NSCLC = system: A549 NSCLC
HS 578T breast = system: HS 578T breast
MDA-MB-435 = system: MDA-MB-435
NCI-H522 lung = system: NCI-H522 lung
RPMI-8226 leukemia = system: RPMI-8226 leukemia
NCI-H23 lung = system: NCI-H23 lung
HCT-15 colon = system: HCT-15 colon
SR leukemia = system: SR leukemia
HL-60(TB) leukemia = system: HL-60(TB) leukemia
KM12 colon = system: KM12 colon
T-47D breast = system: T-47D breast
IGROV1 ovarian = system: IGROV1 ovarian
SF-539 CNS = system: SF-539 CNS
HCC-2998 colon = system: HCC-2998 colon
DU-145 prostate = system: DU-145 prostate
PC-3 prostate = system: PC-3 prostate
NCI-H226 lung = system: NCI-H226 lung
OVCAR-3 ovarian = system: OVCAR-3 ovarian
HT29 colon = system: HT29 colon
SK-OV-3 ovarian = system: SK-OV-3 ovarian
MOLT-4 leukemia = system: MOLT-4 leukemia
HCT-116 colon = system: HCT-116 colon
OVCAR-5 ovarian = system: OVCAR-5 ovarian
MDA-MB-231 breast = system: MDA-MB-231 breast
SNB-19 CNS = system: SNB-19 CNS
SNB-75 CNS = system: SNB-75 CNS
CAKI-1 renal = system: CAKI-1 renal
OVCAR-8 ovarian = system: OVCAR-8 ovarian
786-0 renal = system: 786-0 renal
NCI/ADR-RES ovarian = system: NCI/ADR-RES ovarian
A498 renal = system: A498 renal
NCI-H460 lung = system: NCI-H460 lung
SK-MEL-2 melanoma = system: SK-MEL-2 melanoma
M14 melanoma = system: M14 melanoma
SF-295 CNS = system: SF-295 CNS
MALME-3M melanoma = system: MALME-3M melanoma
UACC-62 melanoma = system: UACC-62 melanoma
RXF 393 renal = system: RXF 393 renal
UO-31 renal = system: UO-31 renal
CCRF-CEM leukemia = system: CCRF-CEM leukemia
SK-MEL-28 melanoma = system: SK-MEL-28 melanoma

With Cn1cc(-c2ccc3c(c2)CCN3C(=O)Cc2cccc(C(F)(F)F)c2)c2c(N)ncnc21 the GI50 (OVCAR-4 ovarian) was 2.41 µM, the TGI (OVCAR-4 ovarian) was > 100 µM and the GI50 (SF-268 CNS) was 9 µM. The TGI (SF-268 CNS) was 26.5 µM, the GI50 (MCF7 breast) was 4.5 µM and the TGI (MCF7 breast) was 18.4 µM. For the same compound, the GI50 (K-562 leukemia) was 2.22 µM, the TGI (K-562 leukemia) was 20.6 µM and the GI50 (SW-620 colon) was 4.89 µM. The TGI (SW-620 colon) was 20.8 µM, the GI50 (BT-549 breast) was 1.82 µM and the TGI (BT-549 breast) was 12.4 µM. The GI50 (TK-10 renal) was 6.09 µM, the TGI (TK-10 renal) was 39 µM and the GI50 (U251 CNS) was 2.69 µM. The TGI (U251 CNS) was 17.7 µM, the GI50 (HOP-92 NSCLC) was 1.7 µM and the TGI (HOP-92 NSCLC) was 9.2 µM. For the same compound, the GI50 (COLO 205 colon) was 4.23 µM, the TGI (COLO 205 colon) was 17.9 µM and the GI50 (SN12C renal) was 2.48 µM. For the same compound, the TGI (SN12C renal) was 19.6 µM, the GI50 (LOX IMVI melanoma) was 3.12 µM and the TGI (LOX IMVI melanoma) was 16.3 µM. It also gave a GI50 (UACC-257 melanoma) of 5.37 µM, a TGI (UACC-257 melanoma) of 24.3 µM and a GI50 (ACHN renal) of 0.871 µM. For the same compound, the TGI (ACHN renal) was 13.2 µM, the GI50 (HOP-62 NSCLC) was 8.17 µM and the TGI (HOP-62 NSCLC) was 29.2 µM. For the same compound, the GI50 (EKVX NSCLC) was 8.7 µM, the TGI (EKVX NSCLC) was 29 µM and the GI50 (A549 NSCLC) was 7.61 µM. It also gave a TGI (A549 NSCLC) of 25.5 µM, a GI50 (HS 578T breast) of 2.76 µM and a TGI (HS 578T breast) of 19.1 µM. The GI50 (MDA-MB-435) was 4.46 µM, the TGI (MDA-MB-435) was 21.2 µM and the GI50 (NCI-H522 lung) was 10.1 µM. The TGI (NCI-H522 lung) was 29 µM, the GI50 (RPMI-8226 leukemia) was 3.84 µM and the TGI (RPMI-8226 leukemia) was 27.7 µM. The GI50 (NCI-H23 lung) was 4.43 µM, the TGI (NCI-H23 lung) was 24.2 µM and the GI50 (HCT-15 colon) was 1.77 µM. It also gave a TGI (HCT-15 colon) of 16.1 µM, a GI50 (SR leukemia) of 2.38 µM and a TGI (SR leukemia) of 23.4 µM. It also gave a GI50 (HL-60(TB) leukemia) of 5.39 µM, a TGI (HL-60(TB) leukemia) of 33 µM and a GI50 (KM12 colon) of 0.401 µM. For the same compound, the TGI (KM12 colon) was 15.5 µM, the GI50 (T-47D breast) was 3.32 µM and the TGI (T-47D breast) was 20.2 µM. It also gave a GI50 (IGROV1 ovarian) of 3.47 µM, a TGI (IGROV1 ovarian) of 30.5 µM and a GI50 (SF-539 CNS) of 1.95 µM. For the same compound, the TGI (SF-539 CNS) was 11.8 µM, the GI50 (HCC-2998 colon) was 13.1 µM and the TGI (HCC-2998 colon) was 28.4 µM. The GI50 (DU-145 prostate) was 2.5 µM, the TGI (DU-145 prostate) was 19.5 µM and the GI50 (PC-3 prostate) was 4.86 µM. The TGI (PC-3 prostate) was 28.7 µM, the GI50 (NCI-H226 lung) was 3.85 µM and the TGI (NCI-H226 lung) was 19.1 µM. It also gave a GI50 (OVCAR-3 ovarian) of 7.1 µM, a TGI (OVCAR-3 ovarian) of 21.9 µM and a GI50 (HT29 colon) of 3.61 µM. The TGI (HT29 colon) was 16.3 µM, the GI50 (SK-OV-3 ovarian) was 1.26 µM and the TGI (SK-OV-3 ovarian) was 8.14 µM. It also gave a GI50 (MOLT-4 leukemia) of 3.55 µM, a TGI (MOLT-4 leukemia) of 18.6 µM and a GI50 (HCT-116 colon) of 4.64 µM. It also gave a TGI (HCT-116 colon) of 18.1 µM, a GI50 (OVCAR-5 ovarian) of 12.2 µM and a TGI (OVCAR-5 ovarian) of 30.2 µM. For the same compound, the GI50 (MDA-MB-231 breast) was 4.69 µM, the TGI (MDA-MB-231 breast) was 21.9 µM and the GI50 (SNB-19 CNS) was 7.06 µM. The TGI (SNB-19 CNS) was 22.9 µM, the GI50 (SNB-75 CNS) was 2.76 µM and the TGI (SNB-75 CNS) was 19 µM. For the same compound, the GI50 (CAKI-1 renal) was 1.52 µM, the TGI (CAKI-1 renal) was 40.3 µM and the GI50 (OVCAR-8 ovarian) was 4.47 µM. The TGI (OVCAR-8 ovarian) was 40.5 µM, the GI50 (786-0 renal) was 2.26 µM and the TGI (786-0 renal) was 17.7 µM. For the same compound, the GI50 (NCI/ADR-RES ovarian) was 4.64 µM, the TGI (NCI/ADR-RES ovarian) was 38.8 µM and the GI50 (A498 renal) was 0.453 µM. For the same compound, the TGI (A498 renal) was 6.56 µM, the GI50 (NCI-H460 lung) was 3.85 µM and the TGI (NCI-H460 lung) was 19.7 µM. It also gave a GI50 (SK-MEL-2 melanoma) of 4.62 µM, a TGI (SK-MEL-2 melanoma) of 28.6 µM and a GI50 (M14 melanoma) of 1.7 µM. The TGI (M14 melanoma) was 16.2 µM, the GI50 (SF-295 CNS) was 8.08 µM and the TGI (SF-295 CNS) was 25.3 µM. For the same compound, the GI50 (MALME-3M melanoma) was 2.03 µM, the TGI (MALME-3M melanoma) was 13.3 µM and the GI50 (UACC-62 melanoma) was 2.72 µM. It also gave a TGI (UACC-62 melanoma) of 16.9 µM, a GI50 (RXF 393 renal) of 3.46 µM and a TGI (RXF 393 renal) of 19.5 µM. For the same compound, the GI50 (UO-31 renal) was 0.673 µM, the TGI (UO-31 renal) was 14.3 µM and the GI50 (CCRF-CEM leukemia) was 3.94 µM. The TGI (CCRF-CEM leukemia) was > 100 µM, the GI50 (SK-MEL-28 melanoma) was 4.72 µM and the TGI (SK-MEL-28 melanoma) was 21.4 µM.
